Earlier results in patent publication US6153225A (Elan Pharma International Limited, priority 1998, dated 2000).
Counter-ions that a name gives are not always drawn.

Structure (SMILES): COc1ccc2cc([C@H](C)C(=O)O)ccc2c1 [Naproxen, d-2(6-methoxy-2-naphthyl)propionic acid]
- pain relief compared with aspirin (menstrual cramps, toothaches, minor arthritis, injuries with inflammation): more potent pain reliever than aspirin

Structure (SMILES): COc1ccc2cc([C@H](C)C(=O)O)ccc2c1 [naproxen sodium salt]
- remission of acute and very high intensity pain (naproxen sodium salt): rapid and sustained remission
